Test results taken from patent publication US4764522A, “Ethylenediamine monoamides” (Hoffmann-La Roche Inc., priority 1984, dated 1988).
Structures can show the parent of a compound that is named as a salt. Where two headings read alike, the source gives them in different places.

What was measured:
[1] = target: T1, monoamine oxidase (MAO) (Rattus norvegicus, UniProt P19643); experiment: MAO inhibiting activity measured in homogenates of the brain two hours after p.o. administration to rats (phenethylamine as substrate); type: in vivo; conditions: po, read-out: ED50 (MAO inhibiting activity)
T1 construct: from tissue; host or cells: rat brain homogenate (ex vivo, two hours after p.o. dosing)
T1 sequence (P19643 1-520): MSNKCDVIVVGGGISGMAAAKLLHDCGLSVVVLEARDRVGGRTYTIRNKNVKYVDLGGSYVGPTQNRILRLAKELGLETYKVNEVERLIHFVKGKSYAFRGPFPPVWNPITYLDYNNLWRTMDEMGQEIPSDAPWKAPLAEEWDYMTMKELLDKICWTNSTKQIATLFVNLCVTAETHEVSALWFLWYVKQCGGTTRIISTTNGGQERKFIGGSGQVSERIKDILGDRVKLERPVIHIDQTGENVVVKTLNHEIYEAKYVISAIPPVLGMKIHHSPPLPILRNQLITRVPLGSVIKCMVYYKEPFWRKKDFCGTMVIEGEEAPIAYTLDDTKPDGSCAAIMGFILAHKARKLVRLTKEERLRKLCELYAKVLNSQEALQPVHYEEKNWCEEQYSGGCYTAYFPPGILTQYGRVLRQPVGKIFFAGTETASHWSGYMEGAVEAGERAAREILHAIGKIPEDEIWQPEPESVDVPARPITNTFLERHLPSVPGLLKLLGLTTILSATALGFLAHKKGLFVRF
Method: The MAO inhibiting activity of the compounds in accordance with the invention can be determined using standard methods. Thus, the substances to be tested were administered p.o. to rats.

[2] = toxicity (LD50), p.o. in the mouse; conditions: in vivo, po
Method: The MAO inhibiting activity of the compounds in accordance with the invention can be determined using standard methods. Thus, the substances to be tested were administered p.o. to rats. Two hours thereafter the animals were killed and the MAO inhibiting activity was measured in homogenates of the brain according to the method described in Biochem. Pharmacol. 12 (1963) 1439-1441, but using phenethylamine (2.10^-5 mol.1^-1) in place of tyramine as the substrate. The thus-determined activity of some compounds in accordance with the invention as well as their toxicity are evident from the following ED50 values (μmol/kg, p.o. in the rat) and LD50 values (mg/kg, p.o. in the mouse), respectively: […]

SMILES	ED50 ([1]; p.o. in the rat, brain homogenates 2 hours after administration, substrate phenethylamine 2.10^-5 mol.1^-1)	LD50 [2]	ED50 ([1]; rat, 2 h)
NCCNC(=O)c1cccc(Cl)n1 [N-(2-aminoethy)-6-chloropyridine-2-carboxamide hydrochloride]	10 µmol/kg	625 to 1250 mg/kg	
Cl.NCCNC(=O)c1csc(Cl)n1 [N-(2-aminoethyl)-2-chlorothiazole-4-carboxamide hydrochloride]		2500 to 5000 mg/kg	6 µmol/kg
Cl.Cl.NCCNC(=O)c1ncccc1N [N-(2-aminoethyl)-3-aminopyridine-2-carboxamide dihydrochloride]		2500 to 5000 mg/kg	5 µmol/kg
Cl.NCCNC(=O)c1cc(Br)ccn1 [N-(2-aminoethyl)-4-bromopyridine-2-carboxamide hydrochloride]		1000 to 2000 mg/kg	4 µmol/kg
Cl.NCCNC(=O)c1cc(Cl)ccn1 [N-(2-aminoethyl)-4-chloropyridine-2-carboxamide hydrochloride]		1250 to 2500 mg/kg	5 µmol/kg
Cl.NCCNC(=O)c1ncsc1Br [N-(2-aminoethyl)-5-bromothiazole-4-carboxamide hydrochloride]		1250 to 2500 mg/kg	10 µmol/kg
Cl.NCCNC(=O)c1ccc(Cl)cn1 [N-(2-aminoethyl)-5-chloropyridine-2-carboxamide hydrochloride]		1000 to 2000 mg/kg	
Cc1cc(C(=O)NCCN)no1.Cl [N-(2-aminoethyl)-5-methylisoxazole-3-carboxamide hydrochloride]		> 4000 mg/kg	20 µmol/kg
Cl.NCCNC(=O)c1cccc(Br)n1 [N-(2-aminoethyl)-6-bromopyridine-2-carboxamide hydrochloride]		1000 to 2000 mg/kg	8 µmol/kg
Cl.Cl.NCCNC(=O)c1ccccn1 [N-(2-aminoethyl)-pyridine-2-carboxamide dihydrochloride]		> 4000 mg/kg	1.7 µmol/kg
